Tested on: irritable bowel syndrome
Test: Clinical Study 2, controlled (slow) release darifenacin once daily vs placebo in irritable bowel syndrome
Type: in vivo, human
Conditions: 12 weeks; for Constipation % of patients reporting AEs / Dry Mouth % of patients reporting AEs / Global Rating % Reduction from baseline / Loose Stool % Reduction from baseline / Pain Score % Reduction from baseline / Total AE % of patients reporting AEs / Urgency % Reduction from baseline / Vision % of patients reporting AEs: uncorrected
Description: The invention may be illustrated by the following clinical studies wherein the treatment of irritable bowel syndrome using darifenacin administered as a once-daily controlled (slow) release formulation in accordance with the prior art is compared with treatment using darifenacin administered as a thrice daily immediate release formulation in accordance with the present invention. Specifically, Clinical Studies 1 and 2 used controlled (slow) release formulations of darifenacin administered once daily (od) and Clinical Study 3 used an immediate release formulation of darifenacin administered three times daily (tid).
During each clinical study, four efficacy measures of irritable bowel syndrome severity were measured, viz. ‘Pain Score’ (Average daily pain score, a composite of severity and number of days of pain), ‘Loose Stool’ (Number of days on which loose or watery stool occurred), ‘Urgency’ (Number of days on which urgency occured) and so-called ‘Global Rating’ (Patient rating of their condition taking into account all symptoms, 0=no problems). Adverse events (AE) such as constipation, dry mouth and visual abnormalities were also recorded.
Clinical Study 2 was a multi-centre, double-blind, randomised, placebo-controlled parallel group study in which four dose strengths of darifenacin of 3.75 mg, 7.5 mg, 15 mg and 30 mg dosed od were compared with placebo. Treatment lasted 12 weeks following a 2-week run-in period.
The controlled (slow) release dosage forms of darifenacin used in Clinical Studies 1 and 2 were 3.75 mg, 7.5 mg, 15.0 mg and 30.0 mg tablets having the following compositions: […]

[1] = controlled release tablet 3.75 mg od
[2] = controlled release tablet 7.5 mg od
[3] = controlled release tablet 15 mg od
[4] = controlled release tablet 30 mg od

NC(=O)C(c1ccccc1)(c1ccccc1)[C@@H]1CCN(CCc2ccc3c(c2)CCO3)C1 [darifenacin]
Constipation % of patients reporting AEs corrected for placebo [1]: 4.5%
Dry Mouth % of patients reporting AEs corrected for placebo [1]: 4.4%
Global Rating % Reduction from baseline corrected for placebo [1]: −7%
Loose Stool % Reduction from baseline corrected for placebo [1]: 8%
Pain Score % Reduction from baseline corrected for placebo [1]: −9%
Total AE % of patients reporting AEs corrected for placebo [1]: 6%
Urgency % Reduction from baseline corrected for placebo [1]: −1%
Vision % of patients reporting AEs corrected for placebo [1]: 0.7%
Constipation % of patients reporting AEs [1]: 6.4%
Dry Mouth % of patients reporting AEs [1]: 9.6%
Global Rating % Reduction from baseline [1]: 21%
Loose Stool % Reduction from baseline [1]: 31%
Pain Score % Reduction from baseline [1]: 28%
Total AE % of patients reporting AEs [1]: 22%
Urgency % Reduction from baseline [1]: 24%
Vision % of patients reporting AEs [1]: 1.3%
Constipation % of patients reporting AEs corrected for placebo [2]: 5.9%
Dry Mouth % of patients reporting AEs corrected for placebo [2]: 4.4%
Global Rating % Reduction from baseline corrected for placebo [2]: −1%
Loose Stool % Reduction from baseline corrected for placebo [2]: 16%
Pain Score % Reduction from baseline corrected for placebo [2]: 0%
Total AE % of patients reporting AEs corrected for placebo [2]: 6%
Urgency % Reduction from baseline corrected for placebo [2]: 8%
Vision % of patients reporting AEs corrected for placebo [2]: 0.6%
Constipation % of patients reporting AEs [2]: 7.8%
Dry Mouth % of patients reporting AEs [2]: 9.6%
Global Rating % Reduction from baseline [2]: 27%
Loose Stool % Reduction from baseline [2]: 39%
Pain Score % Reduction from baseline [2]: 37%
Total AE % of patients reporting AEs [2]: 22%
Urgency % Reduction from baseline [2]: 33%
Vision % of patients reporting AEs [2]: 1.2%
Constipation % of patients reporting AEs corrected for placebo [3]: 11.6%
Dry Mouth % of patients reporting AEs corrected for placebo [3]: 19.8%
Global Rating % Reduction from baseline corrected for placebo [3]: 4%
Loose Stool % Reduction from baseline corrected for placebo [3]: 30%
Pain Score % Reduction from baseline corrected for placebo [3]: 2%
Total AE % of patients reporting AEs corrected for placebo [3]: 15%
Urgency % Reduction from baseline corrected for placebo [3]: 22%
Vision % of patients reporting AEs corrected for placebo [3]: 2.6%
Constipation % of patients reporting AEs [3]: 13.5%
Dry Mouth % of patients reporting AEs [3]: 25%
Global Rating % Reduction from baseline [3]: 32%
Loose Stool % Reduction from baseline [3]: 53%
Pain Score % Reduction from baseline [3]: 39%
Total AE % of patients reporting AEs [3]: 41%
Urgency % Reduction from baseline [3]: 47%
Vision % of patients reporting AEs [3]: 3.2%
Constipation % of patients reporting AEs corrected for placebo [4]: 15.1%
Dry Mouth % of patients reporting AEs corrected for placebo [4]: 30.7%
Global Rating % Reduction from baseline corrected for placebo [4]: 8%
Loose Stool % Reduction from baseline corrected for placebo [4]: 27%
Pain Score % Reduction from baseline corrected for placebo [4]: 3%
Total AE % of patients reporting AEs corrected for placebo [4]: 34%
Urgency % Reduction from baseline corrected for placebo [4]: 26%
Vision % of patients reporting AEs corrected for placebo [4]: 4.6%
Constipation % of patients reporting AEs [4]: 17%
Dry Mouth % of patients reporting AEs [4]: 35.9%
Global Rating % Reduction from baseline [4]: 36%
Loose Stool % Reduction from baseline [4]: 50%
Pain Score % Reduction from baseline [4]: 40%
Total AE % of patients reporting AEs [4]: 50%
Urgency % Reduction from baseline [4]: 41%
Vision % of patients reporting AEs [4]: 5.2%

— patent US6653339B2, “Method of treating irritable bowel syndrome” (Pfizer Inc., priority 2001, dated 2003)
